Test results taken from ChEMBL document CHEMBL3882737, “Fused heterocyclic compounds as ion channel modulators” (2013).

How the values were obtained:
Oryctolagus cuniculus [1] = test: Anti-ischemic activity in anesthetized New Zealand rabbit heart assessed as reduction in ischemia-induced ST segment elevation by measuring MAPD90_ATX levels at 1 uM plasma concentration at 0.1 to 0.4 mg/kg, iv bolus dose dosed 30 mins before ischemia followed by reperfusion; format: functional
[2] = molecular target: Sodium channel protein type 5 subunit alpha (Homo sapiens, UniProt Q14524); test: Inhibition of human NaV1.5 expressed in HEK293 cells assessed as blocking of tefluthrin-induced late sodium currents at 1 uM using -20 mV voltage steps at holding potential of -120 mV by whole cell patch clamp Qpatch method; format: cell-based
Sodium channel protein type 5 subunit alpha, sequence (Q14524 whole entry, the tested form may be a part): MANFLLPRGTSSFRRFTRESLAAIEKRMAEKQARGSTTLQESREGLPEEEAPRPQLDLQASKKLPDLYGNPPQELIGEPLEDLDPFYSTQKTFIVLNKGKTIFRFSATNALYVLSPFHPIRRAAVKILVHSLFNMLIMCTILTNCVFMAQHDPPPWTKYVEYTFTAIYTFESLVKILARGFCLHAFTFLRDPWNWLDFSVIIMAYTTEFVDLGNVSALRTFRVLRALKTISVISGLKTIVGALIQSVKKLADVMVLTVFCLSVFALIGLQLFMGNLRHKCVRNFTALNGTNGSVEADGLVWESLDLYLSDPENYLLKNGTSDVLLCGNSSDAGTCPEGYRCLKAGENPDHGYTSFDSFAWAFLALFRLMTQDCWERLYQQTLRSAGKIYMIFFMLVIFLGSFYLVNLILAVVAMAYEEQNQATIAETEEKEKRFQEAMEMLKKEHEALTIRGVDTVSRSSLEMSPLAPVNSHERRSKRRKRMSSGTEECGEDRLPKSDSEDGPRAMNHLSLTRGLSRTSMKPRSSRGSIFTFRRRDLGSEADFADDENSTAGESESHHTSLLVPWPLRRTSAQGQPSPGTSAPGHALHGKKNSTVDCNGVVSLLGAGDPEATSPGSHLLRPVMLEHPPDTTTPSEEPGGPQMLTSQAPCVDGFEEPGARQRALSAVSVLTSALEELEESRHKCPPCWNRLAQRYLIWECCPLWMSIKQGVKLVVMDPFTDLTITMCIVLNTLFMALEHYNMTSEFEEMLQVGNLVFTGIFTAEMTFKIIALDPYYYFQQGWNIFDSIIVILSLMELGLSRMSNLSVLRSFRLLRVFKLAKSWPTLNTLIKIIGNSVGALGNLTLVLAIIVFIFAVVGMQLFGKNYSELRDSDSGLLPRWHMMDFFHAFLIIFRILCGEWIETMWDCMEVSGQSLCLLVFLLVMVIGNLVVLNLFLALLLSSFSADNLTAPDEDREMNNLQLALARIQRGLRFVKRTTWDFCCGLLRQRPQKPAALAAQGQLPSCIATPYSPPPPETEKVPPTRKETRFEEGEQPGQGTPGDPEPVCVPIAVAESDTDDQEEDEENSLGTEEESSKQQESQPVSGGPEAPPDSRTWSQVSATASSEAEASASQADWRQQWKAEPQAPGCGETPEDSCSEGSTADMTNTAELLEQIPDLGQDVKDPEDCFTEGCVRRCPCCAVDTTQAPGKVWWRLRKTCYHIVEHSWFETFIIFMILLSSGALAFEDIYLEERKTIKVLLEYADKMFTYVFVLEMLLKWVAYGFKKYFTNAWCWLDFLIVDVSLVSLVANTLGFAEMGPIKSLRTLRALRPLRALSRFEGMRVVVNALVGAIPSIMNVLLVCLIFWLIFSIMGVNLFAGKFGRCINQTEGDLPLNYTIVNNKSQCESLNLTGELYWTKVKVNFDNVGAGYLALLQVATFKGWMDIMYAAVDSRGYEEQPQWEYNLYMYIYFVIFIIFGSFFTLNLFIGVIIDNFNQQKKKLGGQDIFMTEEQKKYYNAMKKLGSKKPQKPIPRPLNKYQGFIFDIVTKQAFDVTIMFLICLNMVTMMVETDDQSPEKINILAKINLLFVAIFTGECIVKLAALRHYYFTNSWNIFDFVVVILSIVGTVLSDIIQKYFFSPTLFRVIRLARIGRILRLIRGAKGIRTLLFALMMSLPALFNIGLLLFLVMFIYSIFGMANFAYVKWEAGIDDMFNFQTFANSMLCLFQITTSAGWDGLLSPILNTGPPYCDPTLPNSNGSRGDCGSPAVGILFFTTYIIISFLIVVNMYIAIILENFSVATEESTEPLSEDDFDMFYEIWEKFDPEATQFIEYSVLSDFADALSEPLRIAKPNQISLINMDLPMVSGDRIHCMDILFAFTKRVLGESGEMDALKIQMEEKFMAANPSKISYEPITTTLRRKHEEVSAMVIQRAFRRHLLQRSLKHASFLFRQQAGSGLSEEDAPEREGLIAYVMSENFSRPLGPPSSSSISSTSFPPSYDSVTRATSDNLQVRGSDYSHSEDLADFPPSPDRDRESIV

Oryctolagus cuniculus [3] = test: Effect on blood pressure in anesthetized New Zealand rabbit ischemia-induced ST segment elevation model at 0.1 to 0.4 mg/kg, iv bolus dose dosed 30 mins before ischemia followed by reperfusion; format: ADME, organism-based; settings: in vivo, 0.5 h
Oryctolagus cuniculus [4] = test: Effect on ECG intervals in anesthetized New Zealand rabbit ischemia-induced ST segment elevation model at 0.1 to 0.4 mg/kg, iv bolus dose dosed 30 mins before ischemia followed by reperfusion; format: ADME, organism-based; settings: in vivo, 0.5 h
Oryctolagus cuniculus [5] = test: Effect on heart rate in anesthetized New Zealand rabbit ischemia-induced ST segment elevation model at 0.1 to 0.4 mg/kg, iv bolus dose dosed 30 mins before ischemia followed by reperfusion; format: ADME, organism-based; settings: in vivo, 0.5 h
Oryctolagus cuniculus [6] = test: Anti-ischemic activity in anesthetized New Zealand rabbit heart assessed as reduction in ischemia-induced ST segment elevation at 0.1 to 0.4 mg/kg, iv bolus dose dosed 30 mins before ischemia followed by reperfusion; format: functional, organism-based
Oryctolagus cuniculus [7] = test: Anti-ischemic activity in anesthetized New Zealand rabbit heart assessed as reduction in ischemia-induced myocardial electrical dysfunction at 0.1 to 0.4 mg/kg, iv bolus dose dosed 30 mins before ischemia followed by reperfusion; format: functional, organism-based
[8] = molecular target: NaV1.5 (peak sodium current) (Homo sapiens, UniProt Q14524); test: Inhibition of human NaV1.5 expressed in HEK293 cells assessed as use dependent blocking of cell membrane depolarization-induced peak sodium currents at 1 uM at 0 mV and 3 Hz stimulation at holding potential of -100 mV by whole cell patch clamp Qpatch method; format: cell-based; settings: HEK293 cells that express human NaV1.5
NaV1.5 (peak sodium current), sequence (Q14524 whole entry): as the sequence (Q14524 whole entry, the tested form may be a part) above

Structure (SMILES) | inhibition (INH) (Oryctolagus cuniculus [1]) | also measured
O=C1c2cc(-c3ccc(C(F)(F)F)cc3)ccc2OCCN1Cc1cn2ccccc2n1 | -49% | inhibition at 1 µM [2]: 32 to 33%
COc1cc(OC)nc(CN2CCOc3ccc(-c4ccc(OC(F)(F)F)cc4)cc3C2=O)n1 | -27% | –
O=C1c2cc(-c3ccc(C(F)(F)F)cc3)ccc2OCCN1Cc1ncccn1 | -62% | Activity (Oryctolagus cuniculus [3]): Non-Toxic; Activity (Oryctolagus cuniculus [4]): Non-Toxic; Activity (Oryctolagus cuniculus [5]): Non-Toxic; inhibition (Oryctolagus cuniculus [6]): Dose-dependent effect; inhibition (Oryctolagus cuniculus [7]): Dose-dependent effect
O=C1c2cc(C#Cc3ccc(C(F)(F)F)cc3)ccc2OCCN1Cc1ncccn1 | -49% | –
O=C1c2cc(-c3ccc(C(F)(F)F)cc3F)ccc2OCCN1Cc1ncccn1 | – | inhibition at 1 µM [8]: 10 to 11%
Cc1ccnc(CN2CCOc3cnc(-c4ccc(OC(F)(F)F)cc4)cc3C2=O)n1 | -34% | –
O=C1c2cc(-c3ccc(Cl)cc3)ccc2OCCN1Cc1ncccn1 | -69% | –
CC(C)(C)c1ccc(-c2ccc3c(c2)C(=O)N(Cc2ncccn2)CCO3)cc1 | -50% | –
O=C1c2cc(-c3ccc(OC(F)(F)F)cc3)ccc2OCCN1Cc1ncccn1 [ELECLAZINE] | -56% | Activity (Oryctolagus cuniculus [3]): Non-Toxic; Activity (Oryctolagus cuniculus [4]): Non-Toxic; Activity (Oryctolagus cuniculus [5]): Non-Toxic; inhibition (Oryctolagus cuniculus [6]): Dose-dependent effect; inhibition (Oryctolagus cuniculus [7]): Dose-dependent effect
O=C1c2cc(-c3ccc(OC(F)(F)F)cc3)ccc2OCCN1Cn1cc(Cl)cn1 | -23% | –
O=C1c2cc(-c3ccc(OC(F)(F)F)cc3)ccc2OCCN1Cc1ccc2ccccc2n1 | -10% | –
O=C1c2cc(C#Cc3ccc(OC(F)(F)F)cc3)ccc2OCCN1Cc1ncccn1 | -25% | –
O=C(c1ncccn1)N1CCOc2ccc(-c3ccc(OC(F)(F)F)cc3)cc2C1 | -47% | –
